The values below come from patent publication US20240199604A1, “SUPRAMOLECULAR POLYMER THERAPEUTICS AND DIAGNOSTICS” (The Regents of the University of California, priority 2022, published 2024).

Structures are written as SMILES.

The target in the first series is T1, YFP-tagged 0N4R-Tau P301S aggregates seeded with 416-AD11A lysate (Homo sapiens, UniProt P10636, P618S).
T1 construct: C-terminally YFP-tagged full length 0N4R-Tau; expressed in transfected cells
T1 sequence (P10636 1-383 isoform P10636-6 P243S): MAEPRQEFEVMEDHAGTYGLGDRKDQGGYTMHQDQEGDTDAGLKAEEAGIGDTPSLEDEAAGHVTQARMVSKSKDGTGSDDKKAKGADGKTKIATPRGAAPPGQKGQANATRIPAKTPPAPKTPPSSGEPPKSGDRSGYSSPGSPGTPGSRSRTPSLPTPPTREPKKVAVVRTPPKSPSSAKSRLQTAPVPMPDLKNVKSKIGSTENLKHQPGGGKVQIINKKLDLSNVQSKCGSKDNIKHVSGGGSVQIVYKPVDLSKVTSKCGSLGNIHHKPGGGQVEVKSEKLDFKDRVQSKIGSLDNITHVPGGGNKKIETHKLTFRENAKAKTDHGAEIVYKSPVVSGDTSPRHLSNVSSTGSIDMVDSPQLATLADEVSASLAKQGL
Description: Tau-AD high throughput screening (counter screen) in T24 cells. The series is classed as cell-based. The conditions noted are these: T24 cells seeded with 416-AD11A lysate. Here is the method: A fragment of the Middle Tempral Gyrus (MTG) from Alzheimer's Disease (AD) patient 2217 was resuspended in 9 volumes of PBS (ml/g of brain) and homogenized 3×12 seconds using a probe homogenizer (Thomas Scientific) with disposable Omni Tip plastic homogenizing probes (Thomas Scinetific Cat No 3409Y77) to generate a 10% brain homogenate (10% AD11-BH). The 10% AD11-BH was clarified of insoluble debris by centrifugation at 800×g for 5 minutes. The resulting supernatant was collected and the protein concentration of this clarified BH (AD11-CBH) was determined by bicinchoninic acid assay (BCA) (Thermo Fisher Cat No. 23227). HEK293 cells stably expressing a C-terminally Clover-tagged truncated 4R-Tau^243-382 transgene containing the P301L and V337M mutations and a C-terminally Ruby-tagged truncated 3R-Tau^243-382 transgene containing the L266V and V337M mutations (128/139 cells) were transfected with the AD11-CBH using lipofectamine 2000 (LF2K) (Thermo Fisher Cat No. 11668500). Briefly, 0.32 μl of LF2K were diluted in 5 μl Opti-MEM (Thermo Scientific Cat No 31985070) per well of a 384-well plate and incubated for 5 min at room temperature (RT). This mixture was added to 0.32 μg of AD11-CBH diluted in 5 μl of PBS per well of a 384-well plate and vortex briefly. The transfection mixture was incubated at room temperature for 90 min. The transfection complexes were subsequently added to a single well of a 384-well plate containing 3500 128/139 cells. After 3 days the cells were harvested, counted and plated at a density of 1 cell/well in a 96-well plate. A clonal cell line containing Clover and Ruby positive Tau aggregates was selected and termed 416-AD11A cells. Following the expansion of these 416-AD11A cells, a cell lysate was prepared by freeze/thaw. The cells from a confluent T175 flask were harvested in 1 ml of PBS containing 1× protease inhibitor cocktail by scraping. The cell suspension was subjected to 4 cycles of freezing in liquid nitrogen for 5 minutes followed by thawing at 37° C. for 5 minutes. The resulting cell lysate was centrifuged at 2000 RPM for 10 minutes to remove the cell debris and the protein concentration of the resulting 416-AD11A lysate was determined by BCA assay and aliquots frozen for future use.
HEK293 cells stably expressing C-terminally YFP-tagged full length 0N4R-Tau carrying a P301S mutation (T24 cells) are plated at a density of 4000 cells per well of a 384-well black walled, clear bottom plate (Greiner Cat No 5678-1091Q) in 60 μl of complete DMEM (DMEM (Corning Cat No 10-013-CV), 10% FBS (VWR Cat No 97068-085, 0.5% Penicilin/streptomycin (Gibco Cat No 15140-122)) containing 0.1 μg/ml Hoechst Dye (Thermo Scientific Cat No H3570). Transfection complexes are prepared by diluting 0.15 μg of 416-AD11A lysate or HEK lysate in 5 μl of PBS per well to be transfected and 0.15 μl of Lipofectamine 2000 (LF2K) (ThermoFisher Cat No 11668500) in 5 μl of Opti-MEM per well to be transfected in separate tubes. The pre-diluted 416-AD11A or HEK lysates and LF2K are subsequently mixed and allowed to incubate for 90 minutes at RT. A 10 μl aliquot of the 416-AD11A or HEK transfection complexes is added to the appropriate wells of the 384-well plate containing the T24 cells using the Bravo liquid handling platform (Agilent). Wells A23-P24 of the 384-well plate are transfected with HEK lysate to act as a reference point for spontaneous aggregation of 0N4R^P301S and for transfection related toxicity. The dilution of test compounds is performed using the Bravo liquid handling platform (Agilent). The control is DMSO in the absence of any test compound. Briefly, 1 μl of each test compound (5 mM stock) in the 384-well test plate was transferred to a 384-well plate (Greiner Cat No 781280) containing 61.5 μl of complete DMEM to generate a working stock of compounds at 80 μM. […]
Take `CNC(=O)c1ncc2c(-c3ccc(F)cc3)nn(Cc3ccnc(F)c3)c2n1` [Compound 259]: the “AD Tau Aggregates (% control)” value worked out at 99 % control. As to `CC(=O)Nc1ncc2c(-c3ccccc3C)nn(Cc3ccccc3)c2n1` [Compound 266], the “AD Tau Aggregates (% control)” value was 98 % control.

Consider `Cc1ccnn1-c1nc(-n2cc3ccn(C(F)(F)F)c3nc2=O)c(-c2ccc(F)cc2)o1` [Compound 240], for which the “AD Tau Aggregates (% control)” value is listed as 95 % control. On the same count and under the same terms, then `CCc1ccccc1-c1nn(-c2ccc(F)cc2)c2nc(C(=O)NC)ncc12` [Compound 245], with 120 % control; and `CNC(=O)c1ncc2c(-c3ccccc3Cl)nn(-c3ccc(F)cc3)c2n1` [Compound 244], with 100 % control; and `Cc1ccn(-c2nc(-n3cc4ccn(C(F)(F)F)c4nc3=O)c(-c3ccc(F)cc3)o2)n1` [Compound 241], with 98 % control. In the case of `CCC(=O)Nc1ncc2c(-c3ccccc3)nn(Cc3ccc(OC)cc3)c2n1` [Compound 269], the “AD Tau Aggregates (% control)” value was 100 % control. On the same count and under the same terms, then `CNC(=O)c1ncc2c(-c3ccc(F)cc3)nn(Cc3ccc(F)cc3)c2n1` [Compound 261], with 87 % control; and `CNC(=O)c1ncc2c(-c3ccccc3)nn(Cc3ccccc3)c2n1` [Compound 248], with 95 % control; and `O=c1nc2c(ccn2C(F)(F)F)cn1-c1nc(N2Cc3ccccc3C2)oc1-c1ccc(F)cc1` [Compound 242], with 99 % control. For the compound `CNC(=O)c1ncc2c(-c3ccc(F)cc3)nn(CC3CCCCC3)c2n1` [Compound 258], the “AD Tau Aggregates (% control)” value was 110 % control. Still for that read-out and setting: then `CC(=O)Nc1ncc2c(-c3ccccc3)nn(CC3CCCCC3)c2n1` [Compound 280], with 90 % control; and `CNC(=O)c1ncc2c(-c3ccccc3)nn(-c3ccc(F)cc3)c2n1` [Compound 246], with 120 % control; and `CC(=O)Nc1ncc2c(-c3ccccc3)nn(Cc3cncc(F)c3)c2n1` [Compound 267], with 91 % control. Take `CC(=O)Nc1ncc2c(-c3ccccc3)nn(Cc3ccncc3)c2n1` [Compound 279]: the “AD Tau Aggregates (% control)” value is recorded as 92 % control. On to `COC(=O)Nc1ncc2c(-c3ccccc3)nn(-c3ccccc3)c2n1` [Compound 274], for which the “AD Tau Aggregates (% control)” value is recorded as 94 % control. Same read-out and setting: with `CNC(=O)c1ncc2c(-c3cc4c(cnn4C)cc3F)nn(Cc3ccccc3)c2n1` [Compound 253] the figure was 96 % control; with `CC(=O)Nc1ncc2c(-c3ccccc3)nn(C(C)c3ccccc3)c2n1` (stereo not drawn) [Compound 265], 110 % control; with `CNC(=O)c1ncc2c(-c3ccc(F)cc3)nn(Cc3cccc(F)c3)c2n1` [Compound 260], 95 % control.

`Cc1cc(-c2nc(-n3cc4ccn(C5CC5)c4nc3=O)c(-c3ccc(F)c(F)c3)o2)ncc1F` [Compound 234]: the “AD Tau Aggregates (% control)” value was determined as 85 % control. Turning to `CNC(=O)c1ncc2c(-c3cccc4c3OC(F)(F)O4)nn(Cc3ccccc3)c2n1` [Compound 254], the “AD Tau Aggregates (% control)” value turned out to be 100 % control.

System in another series: not listed separately
Put plainly: Parallel Artificial Membrane Permeability Assay (PAMPA). The series is classed as in vitro ADME. The settings on record: 200 uM test compound, 4 hr. As to the method:
Parallel Artificial Membrane Permeability Assay (PAMPA). 5 uL of 1% lecithin (VWR 0579) dissolved in n-dodecane (Sigma Aldrich D221104) was applied to each well of a MultiScreen IP PAMPA filter plate (Millipore MAIPSWU10) and allowed to equilibrate for 5 minutes. 300 uL of PBS was added to the acceptor plate and 150 uL of 200 uM test compound dissolved in PBS and 30% ethanol was added to the donor wells before incubating the donor plate in the acceptor plate for 4 hr at 500 rpm. 100 uL was sampled from the donor and acceptor wells and the concentrations were measured by liquid chromatography-mass spectrometry (SCIEX 4500) or UV-VIS plate reader (BMG).
Take `CNC(=O)c1ncc2c(-c3cc(F)cc(F)c3)nn(Cc3ccccc3)c2n1` [Compound 252]: the “PAMPA: P_app pH 7.4” value was over 50 ×10e−6 cm/sec.

As for `CC(=O)Nc1ncc2c(-c3ccccc3C)nn(Cc3ccccc3)c2n1` [Compound 266], the “PAMPA: P_app pH 7.4” value was over 50 ×10e−6 cm/sec. For `CCc1ccccc1-c1nn(-c2ccc(F)cc2)c2nc(C(=O)NC)ncc12` [Compound 245], the “PAMPA: P_app pH 7.4” value is on record as over 50 ×10e−6 cm/sec.

As for `CC(=O)Nc1ncc2c(-c3ccccc3)nn(CC3CCCCC3)c2n1` [Compound 280], the “PAMPA: P_app pH 7.4” value is given as 19.5 ×10e−6 cm/sec. `CNC(=O)c1ncc2c(-c3ccccc3)nn(-c3ccc(F)cc3)c2n1` [Compound 246]: the “PAMPA: P_app pH 7.4” value is listed as over 50 ×10e−6 cm/sec. Turning to `CCn1nc(-c2ccccc2)c2cnc(NC(C)=O)nc21` [Compound 277], the “PAMPA: P_app pH 7.4” value is over 50 ×10e−6 cm/sec. For `CNC(=O)c1ncc2c(-c3ccc(F)cc3)nn(Cc3ccccc3)c2n1` [Compound 250], the “PAMPA: P_app pH 7.4” value is recorded as over 50 ×10e−6 cm/sec. Consider `CNc1nc(=O)n(-c2nc(-c3cccc(Cl)c3)oc2-c2ccc(Cl)c(F)c2)cc1F` [Compound 1], for which the “PAMPA: P_app pH 7.4” value was over 50.0 ×10e−6 cm/sec.

In the case of `CC(=O)Nc1ncc2c(-c3ccccc3)nn(Cc3ccccn3)c2n1` [Compound 278], the “PAMPA: P_app pH 7.4” value is reported as over 50 ×10e−6 cm/sec.
